Literature values in patent publication US20040156920A1, “Extracts from plant and non-plant biomass and uses thereof” (priority 2000, published 2004).
pIC50: −log10 of the molar value. Values belong to the compound of their own block, whether it stands above or below them.

Legend:
[1] = test system: male albino rats; conditions: 20 mg/kg body weight daily subcutaneous
[2] = test system: human blood PMN cells; design: phagocytosis at higher concentration: dose or concentration left out as unconfirmed
[3] = test system: classical complement pathway

Compound: CCCCCCCCCCCC1=C(O)C(=O)C=C(O)C1=O [embelin]
sperm count and other fertility parameters [1]: inhibition of sperm count and other fertility parameters

Compound: Wheat germ agglutinin
phagocytosis at higher concentration [2]: strongly inhibited phagocytosis | promotion of phagocytosis compared to Zymosan-A control ([2]; 0.5-1.0 mg/ml): 1.8 times

pIC50 [3]: 4.46
Compound: CC1(C)[C@@H](O)CC[C@]2(C)[C@H]3C(=O)C=C4[C@H]5C[C@@](C)(C(=O)O)CC[C@]5(C)CC[C@@]4(C)[C@]3(C)CC[C@@H]12 [Beta-glycyrrhetinic acid]
